Reference: patent US20240166663A1, “NOVEL PYRIMIDINE DERIVATIVE SHOWING INHIBITION EFFECT ON GROWTH OF CANCER CELLS” (ONCOBIX CO., LTD., priority 2021, published 2024)

Each compound was assayed against EXON 20 Insertion(NPG) Ba/F3 Cell (Homo sapiens, UniProt P00533, INS772GNP, cells depend on it) (assay: Measurement of cancer cell growth inhibitory effect (MTT assay)). Conditions: Ba/F3 cells expressing EGFR with NPG added at D770_N771, 72 hours treatment, read at 595 nm, read-out: EXON 20 Insertion(NPG) Ba/F3 Cell(IC50).
Assay type: cell-based, Murine
From the text: Since there is no commercially available lung cancer cell line with EGFR insertion mutation, a method of inserting 3 to 4 amino acids at each site using site direct mutagenesis in a wild type EGFR expression vector was attempted. In the present invention, first, a vector with three amino acids of NPG added to the D770_N771 site with the highest frequency was used, and Ba/F3 cell line was used for expression of these genes.
When the oncogenic mutant EGFR is expressed, dependence on the mutant EGFR for cell growth and apoptosis occurs without IL-3. Therefore, substances that show effective inhibition of mutant EGFR suppress cell growth and induce apoptosis, so the anticancer effect of cells was analyzed through MTT assay.
1×10^4 cells of the previously constructed stable cells were put into a 96 well plate and incubated overnight, and then the compound of Example was dose dependently treated. After 72 hours, MTT reagent was added, and after 3 hours stop buffer (10% SDS) was added. After 24 hours of incubation, the results were analyzed by reading at 595 nm. […] As a control drug, Mobocertinib was used.

EXON 20 Insertion(NPG) Ba/F3 Cell, sequence (P00533 with tags, fused parts or gaps INS772GNP): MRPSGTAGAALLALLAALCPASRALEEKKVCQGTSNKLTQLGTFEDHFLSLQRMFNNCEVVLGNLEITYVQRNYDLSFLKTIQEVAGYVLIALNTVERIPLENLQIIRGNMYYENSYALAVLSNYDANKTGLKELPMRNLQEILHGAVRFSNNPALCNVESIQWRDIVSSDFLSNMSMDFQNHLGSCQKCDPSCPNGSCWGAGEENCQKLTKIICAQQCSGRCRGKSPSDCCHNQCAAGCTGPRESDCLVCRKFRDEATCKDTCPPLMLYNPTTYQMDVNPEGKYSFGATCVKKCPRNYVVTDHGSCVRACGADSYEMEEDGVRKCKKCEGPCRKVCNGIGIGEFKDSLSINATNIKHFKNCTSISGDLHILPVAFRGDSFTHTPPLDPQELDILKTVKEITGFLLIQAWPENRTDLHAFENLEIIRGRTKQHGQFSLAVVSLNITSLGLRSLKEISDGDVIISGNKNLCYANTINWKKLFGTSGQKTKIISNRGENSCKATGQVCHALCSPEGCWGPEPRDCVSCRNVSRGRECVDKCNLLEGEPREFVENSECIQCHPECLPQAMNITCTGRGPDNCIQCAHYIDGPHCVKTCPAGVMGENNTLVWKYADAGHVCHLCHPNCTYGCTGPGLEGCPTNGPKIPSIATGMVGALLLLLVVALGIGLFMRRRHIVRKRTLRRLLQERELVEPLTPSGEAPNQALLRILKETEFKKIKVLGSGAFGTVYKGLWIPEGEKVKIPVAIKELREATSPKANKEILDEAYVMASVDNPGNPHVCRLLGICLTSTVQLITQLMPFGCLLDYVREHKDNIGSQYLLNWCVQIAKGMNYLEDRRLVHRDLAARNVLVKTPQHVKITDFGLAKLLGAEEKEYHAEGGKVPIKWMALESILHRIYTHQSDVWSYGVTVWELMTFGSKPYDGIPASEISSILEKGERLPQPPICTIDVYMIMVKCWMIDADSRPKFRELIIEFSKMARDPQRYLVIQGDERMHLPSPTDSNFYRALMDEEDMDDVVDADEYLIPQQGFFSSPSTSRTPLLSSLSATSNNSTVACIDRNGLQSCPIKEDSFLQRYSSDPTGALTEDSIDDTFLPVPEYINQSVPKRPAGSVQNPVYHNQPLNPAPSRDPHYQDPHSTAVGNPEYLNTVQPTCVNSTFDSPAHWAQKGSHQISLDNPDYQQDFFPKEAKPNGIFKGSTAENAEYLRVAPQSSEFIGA

Row | SMILES | GI50 [nM]
1 | C=CC(=O)Nc1cc(Nc2ncc(C(F)(F)F)c(Nc3ccccc3-c3ccn(C)n3)n2)c(OC)cc1N(C)CCN(C)C [Example 15, N-(2-((2-(dimethylamino)ethyl)(methyl)amino)-4-methoxy-5-((4-((2-(1-methyl-1H-pyrazol-3-yl)phenyl)amino)-5-(trifluoromethyl)pyrimidin-2-yl)amino)phenyl)acrylamide] | 25 to 50
2 | C=CC(=O)Nc1cc(Nc2ncc(Cl)c(Nc3ccccc3-n3cccn3)n2)c(OC)cc1N(C)CCN(C)C [Example 30, N-(5-((4-((2-(1H-pyrazol-1-yl)phenyl)amino)-5-chloropyrimidin-2-yl)amino)-2-((2-(dimethylamino)ethyl)(methyl)amino)-4-methoxyphenyl)acrylamide] | < 25
3 | C=CC(=O)Nc1cc(Nc2ncc(C(=O)OC)c(Nc3ccccc3-c3ccn(C)n3)n2)c(OC)cc1N(C)CCN(C)C [Example 18, methyl 2-((5-acrylamido-4-((2-(dimethylamino)ethyl)(methyl)amino)-2-methoxyphenyl)amino)-4-((2-(1-methyl-1H-pyrazol-3-yl)phenyl)amino)pyrimidin-5-carboxylate] | 25 to 50
4 | C=CC(=O)Nc1cc(Nc2ncc(C(=O)OC(C)C)c(-c3cn(C)c4ccccc34)n2)c(OC)cc1N(C)CCN(C)C [Mobocertinib, reference compound] | 50 to 500
5 | C=CC(=O)Nc1cc(Nc2ncc(C(=O)OCC)c(Nc3ccccc3-c3ccn(C)n3)n2)c(OC)cc1N(C)CCN(C)C [Example 20, ethyl 2-((5-acrylamido-4-((2-(dimethylamino)ethyl)(methyl)amino)-2-methoxyphenyl)amino)-4-((2-(1-methyl-1H-pyrazol-3-yl)phenyl)amino)pyrimidin-5-carboxylate] | 25 to 50
6 | C=CC(=O)Nc1cc(Nc2cc(Nc3ccccc3-n3cccn3)ncn2)c(OC)cc1N(C)CCN(CC)CC [Example 37, N-(5-((6-((2-(1H-pyrazol-1-yl)phenyl)amino)pyrimidin-4-yl)amino)-2-((2-(diethylamino)ethyl)(methyl)amino)-4-methoxyphenyl)acrylamide] | 25 to 50
7 | C=CC(=O)Nc1cc(Nc2ncc(C(=O)OC3CC3)c(Nc3ccccc3-c3ccn(C)n3)n2)c(OC)cc1N(C)CCN(C)C [Example 22, cyclopropyl 2-((5-acrylamido-4-((2-(dimethylamino)ethyl)(methyl)amino)-2-methoxyphenyl)amino)-4-((2-(1-methyl-1H-pyrazol-3-yl)phenyl)amino)pyrimidin-5-carboxylate] | 25 to 50

Second part, the compound after the results:

Row | GI50 [nM] | SMILES
8 | 25 to 50 | C=CC(=O)Nc1cc(Nc2cc(Nc3ccccc3-c3ccn(C)n3)ncn2)c(OC)cc1N1CC[C@H](N(C)C)C1 [Example 6, (S)-N-(2-(3-(dimethylamino)pyrrolidin-1-yl)-4-methoxy-5-((6-((2-(1-methyl-1H-pyrazol-3-yl)phenyl)amino)pyrimidin-4-yl)amino)phenyl)acrylamide]
9 | < 25 | C=CC(=O)Nc1cc(Nc2cc(Nc3ccccc3-c3ccn(C)n3)ncn2)c(OC)cc1N(C)CCN(C)C [Example 1, N-(2-((2-(dimethylamino)ethyl)(methyl)amino)-4-methoxy-5-((6-((2-(1-methyl-1H-pyrazol-3-yl)phenyl)amino)pyrimidin-4-yl)amino)phenyl)acrylamide]
10 | 25 to 50 | C=CC(=O)Nc1cc(Nc2ncc(C(=O)OC(C)C)c(Nc3ccccc3-c3ccn(C)n3)n2)c(OC)cc1N1CCOCC1 [Example 24, Isopropyl 2-((5-acrylamido-2-methoxy-4-morpholinophenyl)amino)-4-((2-(1-methyl-1H-pyrazol-3-yl)phenyl)amino)pyrimidin-5-carboxylate]
11 | 25 to 50 | C=CC(=O)Nc1cc(Nc2cc(Nc3ccccc3-c3ccn(C)n3)ncn2)c(OC(C)C)cc1N(C)CCN(C)C [Example 3, N-(2-((2-(dimethylamino)ethyl)(methyl)amino)-4-isopropoxy-5-((6-((2-(1-methyl-1H-pyrazol-3-yl)phenyl)amino)pyrimidin-4-yl)amino)phenyl)acrylamide]
12 | < 25 | C=CC(=O)Nc1cc(Nc2cc(Nc3ccccc3-c3ccn(C)n3)ncn2)c(OCC(F)(F)F)cc1N(C)CCN(C)C [Example 10, N-(2-((2-(diamethylamino)ethyl)(methyl)amino)-5-((6-((2-(1-methyl-1H-pyrazol-3-yl)phenyl)amino)pyrimidin-4-yl)amino)-4-(2,2,2-trifluoroethoxy)phenyl)acrylamide]
13 | 25 to 50 | C=CC(=O)Nc1cc(Nc2cc(Nc3ccccc3-c3ccn(C)n3)ncn2)c(OC)cc1N(C)[C@@H]1CCN(C)C1 [Example 8, (R)-N-(4-methoxy-2-(methyl(1-methylpyrrolidin-3-yl)amino)-5-((6-((2-(1-methyl-1H-pyrazol-3-yl)phenyl)amino)pyrimidin-4-yl)amino)phenyl)acrylamide]
14 | 25 to 50 | C=CC(=O)Nc1cc(Nc2cc(Nc3ccccc3-c3ccn(C)n3)ncn2)c(OC)cc1N(C)[C@H]1CCN(C)C1 [Example 9, (S)-N-(4-methoxy-2-(methyl(1-methylpyrrolidin-3-yl)amino)-5-((6-((2-(1-methyl-1H-pyrazol-3-yl)phenyl)amino)pyrimidin-4-yl)amino)phenyl)acrylamide]
15 | 25 to 50 | C=CC(=O)Nc1cc(Nc2cc(Nc3ccccc3-c3ccn(C)n3)ncn2)c(OC)cc1N1CC[C@@H](N(C)C)C1 [Example 7, (R)-N-(2-(3-(dimethylamino)pyrrolidin-1-yl)-4-methoxy-5-((6-((2-(1-methyl-1H-pyrazol-3-yl)phenyl)amino)pyrimidin-4-yl)amino)phenyl)acrylamide]
